Literature values, collected in article PMC12169662, “De Novo-Designed APC/C Inhibitors Provide a Rationale for Targeting RING-Type E3 Ubiquitin Ligases” (Journal of Medicinal Chemistry, 2025).
pKi: −log10 of the molar value.

Target: APC/C
Conditions: determined by the same methodology; ref not given; read-out: K i of apcin; cited from earlier work
Experimental: To quantify the inhibitory effectiveness of H6, its IC50 was determined. To this end, we performed in vitro APC/C ubiquitination assays in the presence of H6 titrated from 0.01 to 100 μM (Figure S17B). […] To distinguish between competitive and noncompetitive inhibition, we determin ...

Q: With `Cc1ncc([N+](=O)[O-])n1CCOC(=O)NC(Nc1ncccn1)C(Cl)(Cl)Cl` (stereo not shown) [apcin] as the compound, how does the pKi read?
A: The pKi was 4.64.
